Source: PubChem BioAssay AID1963977 (Molecular Pharmacology Branch, DTP, NCI, 2024)
Each block holds one compound with its values, some of them ahead of it.

Tested on: 624824-186-R-J3-PDC multicell spheroids, viability
Assay: Anticancer human tumor 624824-186-R-J3-PDC patient-derived colon adenocarcinoma cell line growth inhibition [PI3K]
Settings: for IC50: curve of first compound; for viability, T/C: stronger effect = lower value
Procedure, shortened: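 Spheroid viability read-out. Co-cultures contained the tumor line plus HUVEC and human MSCs. Each agent was paired with a PI3K inhibitor (inavolisib, alpelisib, duvelisib, copanlisib) across half-log dilutions starting at clinical Cmax, or at 10 microM when Cmax was unknown.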

[1] = second compound 0.0316 µM, first compound 0.0316 µM
[2] = second compound 0.0316 µM, first compound 0.1 µM
[3] = second compound 0.1 µM, first compound 0.0316 µM
[4] = second compound 0.1 µM, first compound 0.1 µM
[5] = second compound 0.316 µM, first compound 0.0316 µM
[6] = second compound 0.316 µM, first compound 0.1 µM
[7] = second compound 1 µM, first compound 0.0316 µM
[8] = second compound 1 µM, first compound 0.1 µM
[9] = second compound 3.16 µM, first compound 0.0316 µM
[10] = second compound 3.16 µM, first compound 0.1 µM
[11] = second compound 10 µM, first compound 0.0316 µM
[12] = second compound 10 µM, first compound 0.1 µM
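Further: spheroids exposed to agents for seven days before luminescence read.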
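Wherever viability, T/C is given: luminescent signal used as a stand-in for spheroid viability; percent viability relative to DMSO vehicle control wells taken as 100%.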

- IC50 (second compound 0.0316 µM): 5340 nM
- IC50 (second compound 0.1 µM): 5110 nM
- IC50 (second compound 0.316 µM): 4590 nM
- IC50 (second compound 1 µM): 2850 nM
- IC50 (second compound 3.16 µM): 2030 nM
- IC50 (second compound 10 µM): 1420 nM
Structure (SMILES): CC(C)NCC(C(=O)N1CCN(c2ncnc3c2C(C)CC3O)CC1)c1ccc(Cl)cc1 (centres undefined) + Cc1nc(NC(=O)N2CCCC2C(N)=O)sc1-c1ccnc(C(C)(C)C(F)(F)F)c1
- viability, T/C [1]: 108%
- viability, T/C [2]: 108%
- viability, T/C (second compound 0.0316 µM, first compound 0.316 µM): 99%
- viability, T/C (second compound 0.0316 µM, first compound 1 µM): 78.2%
- viability, T/C (second compound 0.0316 µM, first compound 3.16 µM): 59.8%
- viability, T/C (second compound 0.0316 µM, first compound 10 µM): 39.7%
- viability, T/C [3]: 107%
- viability, T/C [4]: 92.8%
- viability, T/C (second compound 0.1 µM, first compound 0.316 µM): 93.2%
- viability, T/C (second compound 0.1 µM, first compound 1 µM): 77.1%
- viability, T/C (second compound 0.1 µM, first compound 3.16 µM): 53.2%
- viability, T/C (second compound 0.1 µM, first compound 10 µM): 43.2%
- viability, T/C [5]: 104%
- viability, T/C [6]: 104%
- viability, T/C (second compound 0.316 µM, first compound 0.316 µM): 91.1%
- viability, T/C (second compound 0.316 µM, first compound 1 µM): 75.8%
- viability, T/C (second compound 0.316 µM, first compound 3.16 µM): 53.3%
- viability, T/C (second compound 0.316 µM, first compound 10 µM): 41.9%
- viability, T/C [7]: 95.5%
- viability, T/C [8]: 105%
- viability, T/C (second compound 1 µM, first compound 0.316 µM): 86.8%
- viability, T/C (second compound 1 µM, first compound 1 µM): 72.6%
- viability, T/C (second compound 1 µM, first compound 3.16 µM): 46.5%
- viability, T/C (second compound 1 µM, first compound 10 µM): 39.5%
- viability, T/C [9]: 86.8%
- viability, T/C [10]: 77.4%
- viability, T/C (second compound 3.16 µM, first compound 0.316 µM): 79.8%
- viability, T/C (second compound 3.16 µM, first compound 1 µM): 59%
- viability, T/C (second compound 3.16 µM, first compound 3.16 µM): 44.2%
- viability, T/C (second compound 3.16 µM, first compound 10 µM): 32.1%
- viability, T/C [11]: 68.1%
- viability, T/C [12]: 64.9%
- viability, T/C (second compound 10 µM, first compound 0.316 µM): 70.8%
- viability, T/C (second compound 10 µM, first compound 1 µM): 52.5%
- viability, T/C (second compound 10 µM, first compound 3.16 µM): 41.2%
- viability, T/C (second compound 10 µM, first compound 10 µM): 32.8%

- IC50 (second compound 0.0316 µM): > 100 nM
- IC50 (second compound 0.1 µM): 98.4 nM
- IC50 (second compound 0.316 µM): 78.7 nM
- IC50 (second compound 1 µM): 64.4 nM
- IC50 (second compound 3.16 µM): 28.6 nM
- IC50 (second compound 10 µM): 15.5 nM
Structure (SMILES): CC(C)n1nc(-c2ccc3oc(N)nc3c2)c2c(N)ncnc21 + Cc1nc(NC(=O)N2CCCC2C(N)=O)sc1-c1ccnc(C(C)(C)C(F)(F)F)c1
- viability, T/C (second compound 0.0316 µM, first compound 0.000316 µM): 110%
- viability, T/C (second compound 0.0316 µM, first compound 0.001 µM): 104%
- viability, T/C (second compound 0.0316 µM, first compound 0.00316 µM): 112%
- viability, T/C (second compound 0.0316 µM, first compound 0.01 µM): 99.1%
- viability, T/C [1]: 91.3%
- viability, T/C [2]: 53.3%
- viability, T/C (second compound 0.1 µM, first compound 0.000316 µM): 103%
- viability, T/C (second compound 0.1 µM, first compound 0.001 µM): 101%
- viability, T/C (second compound 0.1 µM, first compound 0.00316 µM): 101%
- viability, T/C (second compound 0.1 µM, first compound 0.01 µM): 110%
- viability, T/C [3]: 97.8%
- viability, T/C [4]: 48.9%
- viability, T/C (second compound 0.316 µM, first compound 0.000316 µM): 108%
- viability, T/C (second compound 0.316 µM, first compound 0.001 µM): 101%
- viability, T/C (second compound 0.316 µM, first compound 0.00316 µM): 105%
- viability, T/C (second compound 0.316 µM, first compound 0.01 µM): 100%
- viability, T/C [5]: 89.2%
- viability, T/C [6]: 40%
- viability, T/C (second compound 1 µM, first compound 0.000316 µM): 104%
- viability, T/C (second compound 1 µM, first compound 0.001 µM): 105%
- viability, T/C (second compound 1 µM, first compound 0.00316 µM): 97.2%
- viability, T/C (second compound 1 µM, first compound 0.01 µM): 91.3%
- viability, T/C [7]: 77%
- viability, T/C [8]: 34%
- viability, T/C (second compound 3.16 µM, first compound 0.000316 µM): 87.3%
- viability, T/C (second compound 3.16 µM, first compound 0.001 µM): 94.6%
- viability, T/C (second compound 3.16 µM, first compound 0.00316 µM): 89.5%
- viability, T/C (second compound 3.16 µM, first compound 0.01 µM): 72.9%
- viability, T/C [9]: 48.5%
- viability, T/C [10]: 30.4%
- viability, T/C (second compound 10 µM, first compound 0.000316 µM): 67.5%
- viability, T/C (second compound 10 µM, first compound 0.001 µM): 68.4%
- viability, T/C (second compound 10 µM, first compound 0.00316 µM): 68.1%
- viability, T/C (second compound 10 µM, first compound 0.01 µM): 52.8%
- viability, T/C [11]: 42%
- viability, T/C [12]: 25.7%
